Experimental data reported in US20170136030A1, “TREATMENT OF MALARIA USING INHIBITORS OF THE ISPD ENZYME IN THE NON-MEVALONATE PATHWAY” (Washington University, priority 2014, published 2017).
pEC50, pIC50: −log10 of the molar value.

Tests used:
[1] = biological target: purified recombinant Plasmodium falciparum methylerythritol cytidyltransferase (PfIspD) enzyme (Plasmodium falciparum, UniProt Q8I273); assay: biochemical; conditions: nonlinear regression
Description: Compounds listed in Table 1 were tested for activity against purified recombinant Plasmodium falciparum methylerythritol cytidyltransferase (PfIspD) enzyme. […] Each compound was evaluated for enzymatic inhibition over several concentrations. Nonlinear regression analysis (GraphPad Prism) was used to determine the half-maximal inhibitory concentration (IC50) for each compound.

[2] = tested on: cultured Plasmodium falciparum parasite strain 3D7; assay: Antimalarial efficacy, parasite growth inhibition by Sybr Green staining; assay type: cell-based; conditions: P. falciparum strain 3D7
Description: Each compound was tested for the ability to inhibit growth of a standard cultured Plasmodium falciparum parasite strain 3D7. Parasite growth was monitored by staining with the DNA fluorophore Sybr Green, as previously described for the antimalarial fosmidomycin in Zhang et al., Biochemistry, (2011) 50(17), 3570-3577. Each compound was evaluated for antimalarial activity over several concentrations. Nonlinear regression analysis was used to determine the concentration of half-maximal antimalarial efficacy (EC50) for each compound.

[3] = tested on: MEP pathway; assay: Metabolic profiling of inhibitor-treated malaria parasites (LC-MS/MS); assay type: cell-based; conditions: parasite lines treated with compound, FIG. 3
Description: A quantitative liquid chromatography-mass spectrometry method (LC-MS/MS) was developed to determine the cellular levels of metabolites in the MEP pathway. This method allows determination of whether the MEP pathway has been inhibited in malaria parasites treated with MEP pathway inhibitors of the present invention. This method has been previously used to validate the cellular metabolic effects of the known MEP pathway inhibitor fosmidomycin (Zhang et al., Biochemistry 2011).

Sequence of purified recombinant Plasmodium falciparum methylerythritol cytidyltransferase (PfIspD) enzyme (Q8I273 entry or part of it): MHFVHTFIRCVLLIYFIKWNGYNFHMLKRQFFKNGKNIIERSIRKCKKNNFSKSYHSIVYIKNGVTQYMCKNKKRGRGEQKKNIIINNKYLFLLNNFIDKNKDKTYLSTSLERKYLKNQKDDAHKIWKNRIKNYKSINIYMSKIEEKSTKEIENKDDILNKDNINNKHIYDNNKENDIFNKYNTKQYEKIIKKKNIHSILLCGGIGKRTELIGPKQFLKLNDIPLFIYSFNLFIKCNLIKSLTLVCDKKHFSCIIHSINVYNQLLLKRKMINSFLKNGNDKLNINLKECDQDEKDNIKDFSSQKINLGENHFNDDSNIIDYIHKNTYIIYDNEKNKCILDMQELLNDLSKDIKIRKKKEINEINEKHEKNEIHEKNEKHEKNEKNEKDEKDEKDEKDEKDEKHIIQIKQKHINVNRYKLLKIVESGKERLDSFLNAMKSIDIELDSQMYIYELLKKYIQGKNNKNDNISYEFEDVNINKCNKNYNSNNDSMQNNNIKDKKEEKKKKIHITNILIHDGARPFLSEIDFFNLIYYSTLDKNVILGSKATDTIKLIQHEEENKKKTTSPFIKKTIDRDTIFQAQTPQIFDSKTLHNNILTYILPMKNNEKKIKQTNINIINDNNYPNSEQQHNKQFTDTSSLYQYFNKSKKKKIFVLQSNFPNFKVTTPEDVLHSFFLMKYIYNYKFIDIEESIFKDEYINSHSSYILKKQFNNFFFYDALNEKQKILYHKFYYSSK

Structure (SMILES): O=c1c2ccccc2sn1-c1cc(S(=O)(=O)N2CCOCC2)ccc1N1CCCC1 [Compound 2, 1,2-benzisothiazol-3(2H)-one,2-[-5-(4-morpholinylsulfonyl)-2-(1-pyrrolidinyl)phenyl]]
- pIC50 [1]: 5.14
- pEC50 [2]: 4.77

Structure (SMILES): Cc1ccc(-n2sc3ccccc3c2=O)cc1S(=O)(=O)N1CCOCC1 [Compound 3, 1,2-benzisothiazol-3(2H)-one,2-[4-methyl-3-(4-morpholinylsulfonyl)phenyl]]
- pIC50 [1]: 6.30
- pEC50 [2]: 5.30

Structure (SMILES): O=c1c2ccccc2sn1-c1ccc(S(=O)(=O)N2CCOCC2)cc1 [Compound 4, 1,2-benzisothiazol-3(2H)-one,2-[4-(4-morpholinylsulfonyl)phenyl]]
- pIC50 [1]: 4.51
- pEC50 [2]: 4.68

Structure (SMILES): O=c1c2ccccc2sn1-c1cccc(S(=O)(=O)N2CCOCC2)c1 [Compound 10, 2-(3-morpholinosulfonyl)phenylbenzo[d]isothiazol-3(2H)-one]
- pIC50 [1]: 6.18
- pEC50 [2]: 5.13

Structure (SMILES): CSc1ccccc1C(=O)Nc1cccc(S(=O)(=O)N2CCOCC2)c1 [Compound 11, 2-(methylthio)-(N-((3-morpholinosulfonyl)phenyl)benzamide)]
- pIC50 [1]: < 3.70
- pEC50 [2]: 4.08

Structure (SMILES): Cc1nnsc1C(=O)Nc1cc(S(=O)(=O)N2CCCCC2)ccc1O [Compound 19, N-[2-hydroxy-5-(piperidine-1-sulfonyl)phenyl]-4-methyl-1,2,3-thiadiazole-5-carboxamide]
- pIC50 [1]: 4.23
- pEC50 [2]: < 3.70

Structure (SMILES): COc1ccc(S(=O)(=O)N2CCOCC2)cc1-n1sc2ccccc2c1=O [Compound 24, 2-(2-methoxy-5-(morpholinosulfonyl)phenyl)benzo[d]isothiazol-3(2H)-one]
- pIC50 [1]: 5.97
- pEC50 [2]: 5.06

Structure (SMILES): COc1ccc(S(=O)(=O)N2CCCCC2)cc1-n1sc2ccccc2c1=O [Compound 25, 2-(2-methoxy-5-(piperidin-1-ylsulfonyl)phenyl)benzo[d]isothiazol-3(2H)-one]
- pIC50 [1]: 6.09
- pEC50 [2]: 4.84

Structure (SMILES): COc1ccc(S(=O)(=O)N2CCC(F)CC2)cc1-n1sc2ccccc2c1=O [Compound 26, 2-(5-((4-fluoropiperidin-1-yl)sulfonyl)-2-methoxyphenyl)benzo[d]isothiazol-3(2H)-one]
- pIC50 [1]: 6.06
- pEC50 [2]: 5.21

Structure (SMILES): COc1ccc(S(=O)(=O)N2CCCOCC2)cc1-n1sc2ccccc2c1=O [Compound 27, 2-(5-((1,4-oxazepan-4-yl)sulfonyl)-2-methoxyphenyl)benzo[d]isothiazol-3(2H)-one]
- pIC50 [1]: 6.27
- pEC50 [2]: 5.04

Structure (SMILES): COc1ccc(S(=O)(=O)N2CCN(C)CC2)cc1-n1sc2ccccc2c1=O [Compound 28, 2-(2-methoxy-5-((4-methylpiperazin-1-yl)sulfonyl)phenyl)benzo[d]isothiazol-3(2H)-one]
- pIC50 [1]: 5.71
- pEC50 [2]: 5.61

Structure (SMILES): COc1ccc(S(=O)(=O)N2CCNCC2)cc1-n1sc2ccccc2c1=O [Compound 36, 2-(2-methoxy-5-(piperazin-1-ylsulfonyl)phenyl)benzo[d]isothiazol-3(2H)-one]
- pIC50 [1]: 5.94
- pEC50 [2]: 6.01

Structure (SMILES): O=c1c2ccccc2sn1-c1cc(S(=O)(=O)N2CCOCC2)ccc1O [Compound 37, 2-(2-hydroxy-5-(morpholinosulfonyl)phenyl)benzo[d]isothiazol-3(2H)-one]
- pIC50 [1]: 6.15
- pEC50 [2]: 5.12

Structure (SMILES): O=c1c2ccccc2sn1-c1cc(S(=O)(=O)N2CCC(F)CC2)ccc1O [Compound 38, 2-(5-((4-fluoropiperidin-1-yl)sulfonyl)-2-hydroxyphenyl)benzo[d]isothiazol-3(2H)-one]
- pIC50 [1]: 4.88
- pEC50 [2]: 5.00

Structure (SMILES): O=c1c2ccccc2sn1-c1cc(S(=O)(=O)N2CCCCC2)ccc1O [Compound 39, 2-(2-hydroxy-5-(piperidin-1-ylsulfonyl)phenyl)benzo[d]isothiazol-3(2H)-one]
- pIC50 [1]: 5.27
- pEC50 [2]: 5.04

Structure (SMILES): O=c1c2ccccc2sn1-c1cc(S(=O)(=O)N2CCCOCC2)ccc1O [Compound 40, 2-(5-((1,4-oxazepan-4-yl)sulfonyl)-2-hydroxyphenyl)benzo[d]isothiazol-3(2H)-one]
- pIC50 [1]: 5.71
- pEC50 [2]: 4.83

Structure (SMILES): COc1ccc(-c2cccc(-n3sc4ccccc4c3=O)c2)cc1 [Compound 41, 2-(4′-methoxy-[1,1′biphenyl]-3-yl)benzo[d]isothiazol-3(2H)-one]
- pEC50 [2]: 6.11
- cellular level of downstream MEP pathway metabolite CDP-ME [3]: significantly decreased
- cellular level of downstream MEP pathway metabolite cMEPP [3]: significantly decreased

Structure (SMILES): O=c1c2ccccc2sn1-c1cccc(-c2ccsc2)c1 [Compound 42, 2-(3-(thiophen-3-yl)phenyl)benzo[d]isothiazol-3(2H)-one]
- pIC50 [1]: 6.54
- pEC50 [2]: 5.54

Structure (SMILES): O=c1c2ccccc2sn1-c1cccc(-c2ccc(Cl)cc2)c1 [Compound 43, 2-(4′-chloro-[1,1′biphenyl]-3-yl)benzo[d]isothiazol-3(2H)-one]
- pIC50 [1]: 6.80
- pEC50 [2]: 6.21

Structure (SMILES): O=c1c2ccccc2sn1-c1cccc(-c2ccc(C(F)(F)F)cc2)c1 [Compound 44, 2-(4′-(trifluoromethyl)-[1,1′biphenyl]-3-yl)benzo[d]isothiazol-3(2H)-one]
- pIC50 [1]: 6.51
- pEC50 [2]: 6.35

Structure (SMILES): COC(=O)c1cccc(-n2sc3ccccc3c2=O)c1 [Compound 45, Methyl-3-(3-oxobenzo[d]isothiazol-2(3H)-yl)benzoate]
- pIC50 [1]: 6.82
- pEC50 [2]: 4.93

Structure (SMILES): O=C(O)c1cccc(-n2sc3ccccc3c2=O)c1 [Compound 46, 3-(3-oxobenzo[d]isothiazol-2(3H)-yl)benzoic acid]
- pIC50 [1]: 6.32
- pEC50 [2]: < 3.70

Structure (SMILES): O=c1c2ccccc2sn1-c1ccccn1 [Compound 47, 2-(pyridin-2-yl)benzo[d]isothiazol-2(3H)-one]
- pIC50 [1]: 6.77
- pEC50 [2]: 4.15

Structure (SMILES): O=c1c2ccccc2sn1Cc1ccccc1 [Compound 48, 2-benzylbenzo[d]isothiazol-2(3H)-one]
- pIC50 [1]: 5.61

Structure (SMILES): O=c1c2ccccc2sn1Cc1ccc(Cl)cc1 [Compound 49, 2-(4-chlorobenzyl)benzo[d]isothiazol-2(3H)-one]
- pIC50 [1]: 6.21
- pEC50 [2]: 4.75

Structure (SMILES): O=c1[nH]sc2ncccc12 [Compound 50, Isothiazolo[5,4-b]pyridin-3(2H)-one]
- pIC50 [1]: 4.25
- pEC50 [2]: 3.80

Structure (SMILES): COc1ccc(Cn2sc3ccccc3c2=O)cc1 [Compound 51, 2-(4-methoxybenzyl)benzo[d]isothiazol-2(3H)-one]
- pIC50 [1]: 5.87
- pEC50 [2]: 4.17

Structure (SMILES): O=c1c2cccnc2sn1Cc1ccccc1 [Compound 52, 2-benzylisothiazolo[5,4-b]pyridin-3(2H)-one]
- pIC50 [1]: 5.82
